Results from patent publication US12593847B2, “Formulations” (SYNGENTA CROP PROTECTION AG, priority 2020, dated 2026).
Like-named read-outs stand apart in the source and are kept apart here. One block for each molecule: values may come before it.

Legend:
[1] = Example 2: storage stability of standard formulation (pH 6.05), one year at 20-25° C.; assay type: physicochemical; conditions: Example 2 formulation; for Concentration at t = 0: pH 6.05, before storage; for % loss: pH 6.05, one year at 20-25° C.; for Concentration at t = 1 year and 20-25 ° C.: pH 6.05, stored one year at 20-25° C.
Method: Another standard formulation containing the follow active ingredients was created as follows:
The formulation was stored for one year at 20-25° C. The pH of 6.05 providing excellent chemical stability for picarbutrazox as well at the other active ingredients.

[2] = Example 7: picarbutrazox and thiamethoxam stability relative to pH, 54° C. for 2 weeks; assay type: physicochemical; conditions: for Change in thiamethoxam concentration after storage at 54° C. for 2 weeks: Example 7 formulation (20.8% w/w thiamethoxam); for Change in picarbutrazox concentration after storage at 54° C. for 2 weeks: Example 7 formulation (0.42% w/w picarbutrazox)
Text: Two standard formulations containing the follow active ingredients were created. The standard formulations contained customary formulation components and were then pH adjusted via the addition of either Sodium Hydroxide (NaOH) or Phosphoric Acid (H3PO4) to obtain a range of pH's.

[3] = Example 8: picarbutrazox and thiamethoxam stability relative to pH, 1 month at 50° C.; assay type: physicochemical; conditions: for Change in thiamethoxam concentration after storage for 1 month at 50° C.: Example 8 formulation (20.8% w/w thiamethoxam); for Change in picarbutrazox concentration after storage for 1 month at 50° C.: Example 8 formulation (0.42% w/w picarbutrazox)
Text: Four standard formulations containing the follow active ingredients were created. The standard formulations contained customary formulation components and were then pH adjusted via the addition of either Sodium Hydroxide (NaOH) or Phosphoric Acid (H3PO4) to obtain a range of pH's.

[4] = cited from earlier work; for time for degradation in water of at least 50%: pH 9
[5] = Example 9: storage stability of 43.3% w/w picarbutrazox formulation; assay type: physicochemical; conditions: Example 9 formulation, picarbutrazox only AI at 43.3% w/w, Initial pH 7.2
Method: A standard formulation was prepared which contained picarbutrazox as the only Al at 43.3% w/w concentration. The initial pH was pH 7.2.

[6] = Example 10: storage stability of mixtures of 36% w/w and 0.8% w/w PCBX formulations, 2 weeks at 54 C.; assay type: physicochemical; conditions: for Actual Measured % w/w PCBX in the combined mixture: before storage
Method: A standard formulation was prepared which contained picarbutrazox at 36% w/w concentration. This was then mixed in differing ratios with a standard formulation which contained picarbutrazox at 0.8% w/w concentration. The mixtures were stored for 2 weeks at 54 C.

[7] = pH 7; cited from earlier work
[8] = 0% of 36% w/w PCBX formulation + 100% of 0.8% w/w PCBX formulation
[9] = mixture 30% of 36% w/w PCBX formulation + 70% of 0.8% w/w PCBX formulation
[10] = mixture 60% of 36% w/w PCBX formulation + 40% of 0.8% w/w PCBX formulation
[11] = mixture 90% of 36% w/w PCBX formulation + 10% of 0.8% w/w PCBX formulation

- Concentration at t = 0 [1]: 0.974 % w/w
- % loss [1]: 0%
- Concentration at t = 1 year and 20-25 ° C. [1]: 0.970 % w/w
Compound: Cn1cc(C(=O)Nc2ccccc2C2CC2C2CC2)c(C(F)F)n1 (centres unmarked) [Sedaxane]

Compound: CN1COCN(Cc2cnc(Cl)s2)/C1=N\[N+](=O)[O-] [Thiamethoxam]
- Change in thiamethoxam concentration after storage at 54° C. for 2 weeks ([2]; Initial pH 7.2): −1%
- Change in thiamethoxam concentration after storage at 54° C. for 2 weeks ([2]; Initial pH 8.0): −3%
- Change in thiamethoxam concentration after storage for 1 month at 50° C. ([3]; Initial pH 5.7): −1%
- Change in thiamethoxam concentration after storage for 1 month at 50° C. ([3]; Initial pH 6.0): −1%
- Change in thiamethoxam concentration after storage for 1 month at 50° C. ([3]; Initial pH 7.2): −5%
- Change in thiamethoxam concentration after storage for 1 month at 50° C. ([3]; Initial pH 8.0): −7%
- Hydrolysis ([4]; pH 1, 5, 7 (25° C.)): stable
- Hydrolysis DT50 ([4]; pH 9, 25° C.): 7.3 to 15.6 days
- Concentration at t = 0 [1]: 19.5 % w/w
- % loss [1]: 2%
- Concentration at t = 1 year and 20-25 ° C. [1]: 19.1 % w/w

Compound: N#Cc1c[nH]cc1-c1cccc2c1OC(F)(F)O2 [Fludioxonil]
- Concentration at t = 0 [1]: 0.955 % w/w
- % loss [1]: 1%
- Concentration at t = 1 year and 20-25 ° C. [1]: 0.944 % w/w

Compound: CNC(=O)c1cc(C#N)cc(C)c1NC(=O)c1cc(Br)nn1-c1ncccc1Cl [cyantraniliprole]
- Hydrolysis DT50 ([4]; pH 4, 20° C.): 261 days
- Hydrolysis DT50 ([4]; pH 7, 20° C.): 61 days
- Hydrolysis DT50 ([4]; pH 9, 20° C.): 1.8 days
- time for degradation in water of at least 50% [4]: less than 30 days

Compound: COCC(=O)N(c1c(C)cccc1C)[C@H](C)C(=O)OC [Mefenoxam]
- Concentration at t = 0 [1]: 5.78 % w/w
- % loss [1]: 0%
- Concentration at t = 1 year and 20-25 ° C. [1]: 5.77 % w/w

- Change in picarbutrazox concentration after storage for 1 month at 50° C. [5]: −1%
- Change in picarbutrazox concentration after storage for 2 weeks at 54° C. [5]: −2%
- Change in picarbutrazox concentration after storage at 54° C. for 2 weeks ([2]; Initial pH 7.2): −10%
- Change in picarbutrazox concentration after storage at 54° C. for 2 weeks ([2]; Initial pH 8.0): −6%
- Change in picarbutrazox concentration after storage for 1 month at 50° C. ([3]; Initial pH 5.7): −16%
- Change in picarbutrazox concentration after storage for 1 month at 50° C. ([3]; Initial pH 6.0): −16%
- Change in picarbutrazox concentration after storage for 1 month at 50° C. ([3]; Initial pH 7.2): −13%
- Change in picarbutrazox concentration after storage for 1 month at 50° C. ([3]; Initial pH 8.0): −5%
- Concentration at t = 0 [1]: 0.365 % w/w
- % loss [1]: 0%
- Concentration at t = 1 year and 20-25 ° C. [1]: 0.367 % w/w
- Change in PCBX concentration after storage for 2 weeks at 54 C. [6, 8]: 11%
- Actual Measured % w/w PCBX in the combined mixture [6, 8]: 0.85% w/w
- Change in PCBX concentration after storage for 2 weeks at 54 C. [6, 9]: 0%
- Actual Measured % w/w PCBX in the combined mixture [6, 9]: 11.4% w/w
- Change in PCBX concentration after storage for 2 weeks at 54 C. [6, 10]: 0%
- Actual Measured % w/w PCBX in the combined mixture [6, 10]: 21.8% w/w
- Change in PCBX concentration after storage for 2 weeks at 54 C. [6, 11]: 0%
- Actual Measured % w/w PCBX in the combined mixture [6, 11]: 32.6% w/w
Compound: Cn1nnnc1/C(=N\OCc1cccc(NC(=O)OC(C)(C)C)n1)c1ccccc1 [picarbutrazox, 1,1-Dimethylethyl N-(6-((((Z)-((1-methyl-1H-tetrazol-5-yl)phenylmethylene)amino)oxy)methyl)-2-pyridinyl)carbamate]

Compound: CNC(=O)c1cc(Cl)cc(C)c1NC(=O)c1cc(Br)nn1-c1ncccc1Cl [chlorantraniliprole]
- Aqueous photolysis DT50 [7]: (25° C.). Aqueous photolysis DT50 0.37 d (pH 7).
- Hydrolysis ([4]; pH 4-7 (25° C.)): stable
- Hydrolysis DT50 ([4]; pH 9, 25° C.): 10 days
- time for degradation in water of at least 50% [4]: less than 30 days
